Source: ChEMBL document CHEMBL1201862, “PubChem BioAssay data set” (2004)
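1) Cells in 96-well plates. 2) Compound, 48 h, 5 concentrations. 3) Linear interpolation between surrounding doses. 4) Unreached endpoint = highest concentration. GI50 = concentration required for 50% inhibition of growth.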 The source made the active and inactive calls. Cut-off read from the data, not from the text of the source: active = GI50 up to about 1.1 µM and inactive = higher.

Key:
Test in all cases: inhibition of tumour cell growth, NCI panel, 48 h
786-0 = system: 786-0
A498 = system: A498
A549 = system: A549
BT-549 = system: BT-549
CCRF-CEM = system: CCRF-CEM
HT-29 = system: HT-29
KM12 = system: KM12
MCF7 = system: MCF7
MDA-N = system: MDA-N
MOLT-4 = system: MOLT-4
SF-268 = system: SF-268
SF-295 = system: SF-295
SF-539 = system: SF-539
SK-MEL-2 = system: SK-MEL-2
SK-MEL-5 = system: SK-MEL-5
SNB-19 = system: SNB-19
SNB-75 = system: SNB-75
UACC-257 = system: UACC-257
TK-10 = system: TK-10

Measured: GI50

CCC(=O)Nc1cccc(NC(=O)c2c(Cl)c(Cl)c(Cl)c(Cl)c2-c2nc3ccccc3[nH]2)c1
inactive: 786-0 84.9 µM | A498 > 100 µM | BT-549 87.3 µM | CCRF-CEM 7.45 µM | HT-29 66.2 µM | MCF7 12.7 µM | MDA-N 22 µM | MOLT-4 22.8 µM | SF-268 79.4 µM | SF-539 > 100 µM | SK-MEL-2 > 100 µM | SK-MEL-5 > 100 µM | SNB-75 3.94 µM | UACC-257 59 µM
active: A549 0.0851 µM | KM12 0.0968 µM | SF-295 0.0417 µM | SNB-19 1.03 µM

CC1(C)CNCC(C)(OCc2ccccc2)C(=O)NC(C)(C)CNCC(C)(OCc2ccccc2)C(=O)N1 (stereo not given)
inactive: 786-0 > 10 µM | A498 > 10 µM | A549 > 10 µM | BT-549 > 10 µM | CCRF-CEM > 10 µM | KM12 > 10 µM | MCF7 > 10 µM | MDA-N > 10 µM | MOLT-4 > 10 µM | SF-268 > 10 µM | SF-295 > 10 µM | SF-539 > 10 µM | SK-MEL-2 > 10 µM | SK-MEL-5 > 10 µM | SNB-19 > 10 µM | SNB-75 6.27 µM | TK-10 > 10 µM | UACC-257 > 10 µM

Cc1ccc(S(=O)(=O)NC(=O)Nc2nc[nH]n2)cc1
inactive: 786-0 > 100 µM | A498 > 100 µM | A549 > 100 µM | BT-549 > 100 µM | CCRF-CEM > 100 µM | HT-29 > 100 µM | KM12 > 100 µM | MCF7 > 100 µM | MDA-N > 100 µM | MOLT-4 > 100 µM | SF-268 > 100 µM | SF-295 > 100 µM | SF-539 > 100 µM | SK-MEL-2 > 100 µM | SK-MEL-5 > 100 µM | SNB-19 > 100 µM | SNB-75 > 100 µM | TK-10 > 100 µM | UACC-257 > 100 µM

COc1c2c(cc3c1-c1c(cc4c(c1OC)OCO4)C1OC3C(C)C1C)OCO2.COc1cc2c(c(OC)c1OC)-c1c(cc3c(c1OC)OCO3)C1OC2C(C)C1C (stereo not given)
inactive: 786-0 > 100 µM | A498 > 100 µM | A549 97.5 µM | BT-549 61.2 µM | CCRF-CEM 40.4 µM | HT-29 88.7 µM | KM12 95.1 µM | MCF7 > 100 µM | MDA-N > 100 µM | MOLT-4 22.3 µM | SF-268 > 100 µM | SF-295 87.1 µM | SF-539 > 100 µM | SK-MEL-2 > 100 µM | SK-MEL-5 78 µM | SNB-19 > 100 µM | SNB-75 33 µM | TK-10 > 100 µM | UACC-257 73.1 µM

O=C1NC(SSC2=NNC3(C(=O)N2)c2ccccc2-c2ccccc23)=NNC12c1ccccc1-c1ccccc12
inactive: 786-0 > 10 µM | A498 > 10 µM | A549 > 10 µM | BT-549 > 10 µM | CCRF-CEM > 10 µM | HT-29 > 10 µM | KM12 > 10 µM | MCF7 > 10 µM | MDA-N > 10 µM | MOLT-4 > 10 µM | SF-268 > 10 µM | SF-295 > 10 µM | SF-539 > 10 µM | SK-MEL-2 > 10 µM | SK-MEL-5 > 10 µM | SNB-19 > 10 µM | SNB-75 > 10 µM | TK-10 > 10 µM | UACC-257 > 10 µM

O=[N+]([O-])c1ccc(C[S+]([O-])Cc2ccccc2)cc1 (stereo not given)
inactive: 786-0 > 100 µM | A498 > 100 µM | A549 > 100 µM | BT-549 > 100 µM | CCRF-CEM > 100 µM | HT-29 > 100 µM | KM12 > 100 µM | MCF7 > 100 µM | MDA-N > 100 µM | MOLT-4 > 100 µM | SF-268 > 100 µM | SF-295 > 100 µM | SF-539 > 100 µM | SK-MEL-2 > 100 µM | SK-MEL-5 > 100 µM | SNB-19 > 100 µM | SNB-75 39.9 µM | TK-10 > 100 µM | UACC-257 > 100 µM

CC(=O)OC1COC(Nn2c(=O)[nH]c3ccccc3c2=O)C(OC(C)=O)C1OC(C)=O (stereo not given)
inactive: 786-0 > 100 µM | A498 > 100 µM | A549 > 100 µM | BT-549 > 100 µM | CCRF-CEM > 100 µM | HT-29 > 100 µM | KM12 39.4 µM | MCF7 > 100 µM | MDA-N > 100 µM | MOLT-4 > 100 µM | SF-268 > 100 µM | SF-295 > 100 µM | SF-539 > 100 µM | SK-MEL-2 > 100 µM | SK-MEL-5 > 100 µM | SNB-19 > 100 µM | SNB-75 30.3 µM | TK-10 > 100 µM | UACC-257 > 100 µM

COc1ccccc1NC(=O)CC(=O)N1N=C(C)C(/N=N/c2ccc(C(=O)O)cc2)C1=O (stereo not given)
inactive: 786-0 > 100 µM | A498 > 100 µM | A549 > 100 µM | BT-549 > 100 µM | CCRF-CEM > 100 µM | HT-29 23.8 µM | KM12 > 100 µM | MCF7 > 100 µM | MDA-N > 100 µM | SF-268 > 100 µM | SF-295 > 100 µM | SF-539 > 100 µM | SK-MEL-2 > 100 µM | SK-MEL-5 > 100 µM | SNB-19 > 100 µM | SNB-75 2.24 µM | TK-10 > 100 µM | UACC-257 > 100 µM

O=C1C(Cl)=C(NCCF)C(=O)c2ncccc21
active: CCRF-CEM 0.235 µM | MDA-N 0.2 µM | SK-MEL-5 1 µM
inactive: 786-0 1.82 µM | A498 4.12 µM | A549 1.89 µM | BT-549 1.63 µM | HT-29 2.97 µM | KM12 1.93 µM | MCF7 1.72 µM | MOLT-4 1.55 µM | SF-268 2.03 µM | SF-295 1.75 µM | SF-539 1.81 µM | SK-MEL-2 1.68 µM | SNB-19 1.64 µM | SNB-75 1.29 µM | TK-10 2.13 µM | UACC-257 1.62 µM

Cc1nc2c(=O)n(-c3ccccc3)c3ccccc3c2o1
inactive: 786-0 > 100 µM | A498 > 100 µM | A549 > 100 µM | BT-549 > 100 µM | CCRF-CEM > 100 µM | HT-29 > 100 µM | KM12 > 100 µM | MCF7 > 100 µM | MDA-N > 100 µM | MOLT-4 > 100 µM | SF-268 > 100 µM | SF-295 > 100 µM | SF-539 > 100 µM | SK-MEL-2 > 100 µM | SK-MEL-5 > 100 µM | SNB-19 > 100 µM | SNB-75 > 100 µM | TK-10 > 100 µM | UACC-257 > 100 µM

COc1cc(/C=N/c2ccccn2)cc(OC)c1OC
inactive: 786-0 > 100 µM | A498 > 100 µM | A549 > 100 µM | BT-549 > 100 µM | CCRF-CEM > 100 µM | HT-29 > 100 µM | KM12 > 100 µM | MCF7 54.5 µM | MDA-N 28.3 µM | MOLT-4 > 100 µM | SF-268 > 100 µM | SF-295 > 76.9 µM | SF-539 > 100 µM | SK-MEL-2 > 100 µM | SK-MEL-5 > 93.1 µM | SNB-19 80.5 µM | SNB-75 > 100 µM | UACC-257 > 100 µM

CC1(C)[C@@H]2C[C@H]1c1cnc(-c3ccccn3)cc1[C@H]2C(O)[C@@H]1c2cc(-c3ccccn3)ncc2[C@H]2C[C@@H]1C2(C)C (stereo not given in full)
inactive: TK-10 2.14 µM
active: 786-0 0.0451 µM | A498 0.491 µM | A549 0.154 µM | BT-549 0.184 µM | CCRF-CEM < 0.0222 µM | HT-29 0.112 µM | KM12 0.769 µM | MCF7 0.0796 µM | MDA-N 0.627 µM | MOLT-4 0.0285 µM | SF-268 0.126 µM | SF-295 0.0721 µM | SF-539 0.214 µM | SK-MEL-2 0.428 µM | SK-MEL-5 0.0461 µM | SNB-19 0.301 µM | SNB-75 0.773 µM | UACC-257 0.396 µM

O=C(CCCN1CCC2(CC1)CC(=O)N(N1CCCCCC1)C2=O)c1ccccc1
inactive: 786-0 > 100 µM | A498 > 100 µM | A549 > 100 µM | BT-549 > 100 µM | CCRF-CEM > 100 µM | HT-29 67.1 µM | MCF7 > 100 µM | MDA-N > 100 µM | MOLT-4 > 100 µM | SF-268 > 100 µM | SF-295 > 100 µM | SF-539 > 100 µM | SK-MEL-2 > 100 µM | SK-MEL-5 > 100 µM | SNB-19 > 100 µM | SNB-75 > 100 µM | TK-10 > 100 µM | UACC-257 > 100 µM

CC(=S)NC1C(Oc2ccc3c(C)cc(=O)oc3c2)OC(CO)C(O)C1O (stereo not given)
inactive: 786-0 > 10 µM | A498 > 100 µM | A549 > 100 µM | BT-549 > 100 µM | CCRF-CEM > 100 µM | HT-29 > 100 µM | KM12 > 100 µM | MCF7 > 100 µM | MDA-N > 100 µM | MOLT-4 > 100 µM | SF-295 > 100 µM | SF-539 > 100 µM | SK-MEL-2 > 100 µM | SK-MEL-5 > 100 µM | SNB-19 > 100 µM | SNB-75 > 100 µM | TK-10 > 100 µM | UACC-257 > 100 µM
